From ChEMBL document CHEMBL1146640, “A new 2-carbamoyl pteridine that inhibits mycobacterial FtsZ” (2004)
Converted amounts (≈) assume the structure as drawn.

Columns and labels:
[1] = test system: Mycobacterium tuberculosis; test: In vitro minimum inhibitory concentration (MIC) towardsMtb H37Ra was determined using a colorimetric (Alamar blue) microdilution broth assay; assay type: functional
[2] = test system: Mycobacterium tuberculosis; test: Inhibitory dose required against Mycobacterium tuberculosis FtsZ polymerization; assay type: functional; details: read-out: ID50 (the source's name)
[3] = test system: Mycobacterium tuberculosis; test: Compound was tested for inhibition of GTP hydrolysis at a concentration of 100 uM in Mycobacterium tuberculosis (Mtb); assay type: functional
[4] = molecular target: Tubulin alpha chain (Sus scrofa) (UniProt P02550); test: Percentage inhibition against human tubulin polymerization; assay type: functional; details: concentration not given here
Tubulin alpha chain (Sus scrofa), sequence (P02550 whole entry, looked up): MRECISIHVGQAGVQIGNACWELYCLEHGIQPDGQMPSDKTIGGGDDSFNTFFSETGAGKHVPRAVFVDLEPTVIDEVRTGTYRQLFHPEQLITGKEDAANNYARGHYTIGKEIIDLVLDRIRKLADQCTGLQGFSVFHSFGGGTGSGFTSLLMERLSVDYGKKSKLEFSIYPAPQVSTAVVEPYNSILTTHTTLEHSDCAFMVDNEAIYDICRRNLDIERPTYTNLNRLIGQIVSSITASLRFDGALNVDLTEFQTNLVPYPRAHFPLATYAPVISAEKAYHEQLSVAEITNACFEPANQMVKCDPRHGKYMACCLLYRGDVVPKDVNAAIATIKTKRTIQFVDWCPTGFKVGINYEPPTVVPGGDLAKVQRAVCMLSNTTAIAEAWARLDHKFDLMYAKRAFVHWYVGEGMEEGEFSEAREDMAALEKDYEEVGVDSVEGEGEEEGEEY

[5] = test system: Tubulin alpha chain (Homo sapiens); test: Percentage inhibition against human tubulin polymerization

CCOC(=O)Nc1nc(NC(C)CCCN(CC)CC)c2nc(-c3ccccc3)c(-c3ccccc3)nc2n1 (stereo not drawn)
MIC [1]: 2 µg/mL (≈ 3.79 µM)
IC50 [2]: 38.1 µM
Hydrolysis [3]: 23%
inhibition [4]: 24%

CCOC(=O)Nc1cc(NC(C)CCCN(CC)CC)c2nc(-c3ccccc3)c(-c3ccccc3)nc2n1 (stereo not drawn)
inhibition [5]: No inhibition
MIC [1]: > 0.25 µg/mL
IC50 [2]: 34.2 µM
Hydrolysis [3]: 35%
